{
  "source": "patent US20240238268A1",
  "about": "“TREATMENTS AND METHODS FOR TREATING ALZHEIMER'S DISEASE” (Board of Supervisors of Louisiana State University and …, priority 2021, published 2024)",
  "key": {"aged 3xTg-AD female mice [1]": {"test_system": "aged 3xTg-AD female mice", "experiment": "Novel Object Recognition", "type": "in vivo, mouse", "protocol": "FIGS. 20A and 20B are two graphs showing PRMT4 inhibitor (TP-064) or AAV knockdown of PRMT4 improved functional learning/memory in aged 3xTg-AD female mice. […] C57 but increased with administration of TP-064 (30 mg/kg, 7 days, IP). In FIG. 20B, in Novel Object Recognition, aged 3xTg-AD female mice had fewer number of entries in the novel zone v. C57. Treatment with TP-064 or brain-specific AAV knockdown of PRMT4 increased the number of entries. T-maze and novel object recognition test were utilized to analyze working/short-term and reference/long-term memory, respectively. * p<0.05 v. C57 via one-way ANOVA with Tukey's post-hoc analyses."}, "aged 3xTg-AD female mice [2]": {"test_system": "aged 3xTg-AD female mice", "experiment": "BBB leakage: 40 kDa FITC-dextran in perivascular space", "type": "in vivo, mouse", "settings": "30 min after FITC-dextran", "source_text": "FIGS. 14A-14C show BBB leakage is reduced with specific PRMT4 inhibitor (TP-064) or AAV knockdown of PRMT4 in aged 3xTg-AD female mice. Aged female 3xTg-AD mice had higher levels of 40 kDa FITC-dextran in the perivascular space v. C57 controls. This was reduced with administration of PRMT inhibitor (TP-064) or AAV knockdown of PRMT4. […] FIG. 14B is a schematic representation of one of the disclosed experimental paradigms. […] C57, #p<0.05 v. 3xTg-AD female, evaluated by one-way ANOVA with Tukey's post-hoc analysis."}, "PRMT4": {"target": "T1, PRMT4 (Mus musculus, UniProt Q9WVG6)", "T1 construct": "Protein was extracted from dissected tissue in an extraction buffer; from tissue; host or cells: mouse brain (cortex, hippocampus, whole brain lysate) of 3xTg-AD and C57BL/6J mice", "T1 sequence (Q9WVG6 1-608)": "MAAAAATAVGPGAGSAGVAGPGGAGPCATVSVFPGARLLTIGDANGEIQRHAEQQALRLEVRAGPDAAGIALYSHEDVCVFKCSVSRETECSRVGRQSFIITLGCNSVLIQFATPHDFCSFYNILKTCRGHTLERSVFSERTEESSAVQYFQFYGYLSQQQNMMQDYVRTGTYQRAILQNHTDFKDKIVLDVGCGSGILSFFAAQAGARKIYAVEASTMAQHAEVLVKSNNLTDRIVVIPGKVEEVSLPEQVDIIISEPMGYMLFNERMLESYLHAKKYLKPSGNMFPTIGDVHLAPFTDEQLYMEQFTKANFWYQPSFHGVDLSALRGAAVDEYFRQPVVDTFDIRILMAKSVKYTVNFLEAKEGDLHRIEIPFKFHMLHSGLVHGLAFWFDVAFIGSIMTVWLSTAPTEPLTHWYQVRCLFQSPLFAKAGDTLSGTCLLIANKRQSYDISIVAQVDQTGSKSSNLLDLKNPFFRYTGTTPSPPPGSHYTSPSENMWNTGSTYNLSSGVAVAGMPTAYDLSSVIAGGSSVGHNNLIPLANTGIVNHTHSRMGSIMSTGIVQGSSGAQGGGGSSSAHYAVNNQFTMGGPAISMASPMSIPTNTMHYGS", "experiment": "PRMT4 protein level in brain, capillary-based immunoassay", "type": "in vivo", "settings": "IP", "protocol": "Dosage, delivery of TP-064: PRMT4 specific inhibitor (TP-064, 30 mg/kg/day for 7 days, IP) was administered once daily for 7 or 21 days to young (4-6 months) and aged (9-12 months) C57BL/6J and 3xTg-AD, male and female mice. The inventors have found a dose response curve that evidences that 30 mg/kg (I.P.) of TP-064 decreases PRMT4 (FIG. 10A). TP-064 was dissolved in 100% DMSO, diluted in 0.9% saline (total injection volume=100 μL, ˜1.5% DMSO in mouse), greater than 5% DMSO can affect the brain.\nTreatment regimen: Aged (9-12 month) females from both C57BL6/J as well as 3xTg-AD strains were randomly selected and placed in experimental groups. Treatment consisted of specific PRMT4 inhibitor TP-064 (Cat. No. 6008, Tocris, Minneapolis, MN) (Zhang, de Boer, van der Wel, Van Eck, & Hoekstra, 2021); (Zhong et al., 2018). The pharmacological mechanism of TP-064 has not been well-elucidated though it is thought to act as an allosteric inhibitor of the PRMT4 active site (Nakayama et al., 2018). Based on the pharmacokinetic data provided by the Structural Genomics Consortium (https://www.thesgc.org/), a dose of 30 mg/kg was selected. […] Final dose was calculated based on animal weight.\nCapillary-phoresis immunoassay via ProteinSimple®: Quantification of all protein targets was achieved using Simple Western analysis in a Jess™ apparatus per the manufacturer's protocol (ProteinSimple, Bio-techne, Minneapolis, MN). […] Following homogenization and centrifugation (10,000×g, 5 min, 4° C.), protein concentration was determined in tissue protein supernatant samples using DC Protein Assay (Cat. No. 5000112, Bio-Rad Laboratories, Hercules, California) according to manufacturer instructions. […] Antibody diluent (ProteinSimple, Bio-techne, Minneapolis, MN) was used for all antibody dilutions as follows: PRMT4 (1:50, RRID: AB_2068436), PRMT6 (1:100, Cell Signaling Technology cat. 14641), eNOS (1:200, RRID: AB_10850618), nNOS (1:100, RRID: AB_2152488), iNOS (1:100, RRID: AB_10000625), DDAH2 (1:50, RRID: AB_2640442) Antibodies were detected using HRP-conjugated secondary anti-rabbit, and -mouse. […]"}, "[3]": {"settings": "aged 3xTg-AD female mice, 30 mg/kg for 7 days, normalized to total protein"}},
  "data": [
    {"molecule": "CNCCN1CCC(c2cc(CN(C)C(=O)c3cccc(Oc4ccccc4)c3)ccn2)CC1", "note": "[TP-064, N-Methyl-N-((2-(1-(2-(methylamino)ethyl)piperidin-4-yl)pyridin-4-yl)methyl)-3-phenoxybenzamide]", "values": [
      {"measurement": "number of entries in the novel zone", "setting": "aged 3xTg-AD female mice [1]", "value": "increased"},
      {"measurement": "40 kDa FITC-dextran in the perivascular space (BBB leakage)", "setting": "aged 3xTg-AD female mice [2]", "value": "reduced"},
      {"measurement": "PRMT4 expression in whole brain lysate", "setting": "PRMT4; 3xTg-AD mice, 7.5, 15 and 30 mg/kg, 7 days, relative to untreated 3xTg-AD", "value": "reduced PRMT4 expression in whole brain lysate in a dose-dependent manner"},
      {"measurement": "cortical PRMT4 protein level", "setting": "PRMT4; [3]", "value": "reduced"},
      {"measurement": "hippocampal PRMT4 protein level", "setting": "PRMT4; [3]", "value": "reduced"}
    ]}
  ]
}
